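48-hour exposure; five concentrations; linearly interpolated endpoints. GI50 marks 50% less growth. TGI marks complete inhibition of growth.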
Legend:
Test in all cases: inhibition of tumour cell growth, NCI panel, 48 h
HCC-2998 colon = tested on: HCC-2998 colon
HOP-62 NSCLC = tested on: HOP-62 NSCLC
IGROV1 ovarian = tested on: IGROV1 ovarian
K-562 leukemia = tested on: K-562 leukemia
M14 melanoma = tested on: M14 melanoma
MDA-MB-231 breast = tested on: MDA-MB-231 breast
MDA-MB-435 = tested on: MDA-MB-435
OVCAR-3 ovarian = tested on: OVCAR-3 ovarian
SF-268 CNS = tested on: SF-268 CNS
SK-OV-3 ovarian = tested on: SK-OV-3 ovarian

| Structure (SMILES) | GI50 (HCC-2998 colon) [µM] | TGI (HCC-2998 colon) [µM] | GI50 (HOP-62 NSCLC) [µM] | TGI (HOP-62 NSCLC) [µM] | GI50 (IGROV1 ovarian) [µM] | TGI (IGROV1 ovarian) [µM] | GI50 (K-562 leukemia) [µM] | TGI (K-562 leukemia) [µM] | GI50 (M14 melanoma) [µM] | TGI (M14 melanoma) [µM] | GI50 (MDA-MB-231 breast) [µM] | TGI (MDA-MB-231 breast) [µM] | GI50 (MDA-MB-435) [µM] | TGI (MDA-MB-435) [µM] | GI50 (OVCAR-3 ovarian) [µM] | TGI (OVCAR-3 ovarian) [µM] | GI50 (SF-268 CNS) [µM] | TGI (SF-268 CNS) [µM] | GI50 (SK-OV-3 ovarian) [µM] | TGI (SK-OV-3 ovarian) [µM] |
| --- | --- | --- | --- | --- | --- | --- | --- | --- | --- | --- | --- | --- | --- | --- | --- | --- | --- | --- | --- | --- |
| COc1ccc(-c2cncn2-c2cc(OC)c(OC)c(OC)c2)cc1 | 0.0779 | 1.37 | 0.101 | > 71.6 | < 0.0157 | 1.53 | 0.443 | > 100 | 0.179 | 12.7 | 0.465 | 25.7 | 0.0178 | 0.0567 | 0.0282 | 0.0641 | 2.01 | 59.7 | 0.256 | > 86.5 |
| CS(=O)(=O)c1ccc(Nc2nc(N[C@H]3CCCC[C@H]3N)nc3cc[nH]c(=O)c23)cc1 | 1.52 | 4.49 | 3.02 | > 100 | – | – | 1.14 | > 100 | 2.16 | 8.83 | 2.81 | 16.3 | 1.3 | 3.7 | 1.3 | 4.67 | 1.33 | 4.26 | 3.17 | > 100 |
| C#CC1=CC(=O)C(OC)=CC1=O | – | 81.5 | – | 36.6 | – | – | – | > 100 | – | 39.1 | – | 34.8 | – | 34.8 | – | > 100 | – | > 100 | – | > 100 |
| COc1ccc(-c2nc(-c3nc4ccc(C)cc4[nH]3)cc3c2[nH]c2ccccc23)cc1 | 7.61 | > 100 | 5.78 | > 100 | 3.58 | > 100 | 3.09 | > 100 | 3.09 | 11.7 | 6.88 | > 100 | 3.94 | > 100 | 3.59 | 12 | 6.8 | > 100 | 61 | > 100 |
| Cc1c(C#N)cccc1[C@@H](C)Nc1nnc(C)c2cnc(N3CCOCC3)cc12 | 53.9 | > 100 | 43.4 | > 100 | 24 | > 100 | 0.367 | > 100 | 27 | 90.4 | 26.9 | > 100 | 18.3 | 49.1 | 14.5 | 66.1 | 14.1 | > 100 | 31.3 | > 100 |
| O=C(NCC(F)(F)F)Nc1cccc(-c2cnc3cc(-c4ccc(F)cc4)ccn23)c1 | 1.95 | 49.4 | 1.51 | > 86.3 | 0.673 | 7.75 | 0.376 | 10.9 | 1.15 | > 100 | 2.65 | > 49.4 | 0.216 | 0.983 | 0.812 | 15.8 | 2.8 | > 100 | 1.96 | > 54.2 |
| CC(=O)OC12C=C(C)C(C(C)C1)C1C(=O)N(CCN3CCCCC3)C(=O)C12 (stereo not given) | > 50 | > 50 | > 50 | > 50 | > 50 | > 50 | > 50 | > 50 | > 50 | > 50 | > 50 | > 50 | > 50 | > 50 | – | – | > 50 | > 50 | > 50 | > 50 |
| CCCOC(=O)c1c(C)n(C)c2scc[n+]12 | 55.9 | > 100 | 44.6 | > 100 | – | 22.9 | 21 | > 100 | > 100 | > 100 | > 100 | > 100 | > 100 | > 100 | 30.6 | > 100 | 48 | > 100 | 49.6 | > 100 |
| Cc1cc(C)c(C#N)c(Sc2nc(C)c([N+](=O)[O-])c(C)c2C#N)n1 | 4.66 | 15.8 | 3.52 | 12.7 | 3.3 | 12.3 | 2.9 | > 100 | 3.07 | 10.4 | 4.7 | 51 | 2.1 | 4.75 | 2.01 | 3.88 | 3.26 | 11.8 | 3.76 | 27.4 |
| CCCCCCCCCCCCC(O)c1ccco1 (stereo not given) | 18.4 | 32.3 | 20.6 | 36.8 | 21.1 | 42.7 | 29.1 | 48 | 21 | 37.9 | 17.4 | 32.7 | 19.4 | 35.6 | 17.9 | 34.4 | 19.1 | 46 | 22.5 | 44.7 |
| CC(C)N(Cc1ccc(CN(C(=O)CCl)C(C)C)cc1)C(=O)CCl | 2 | 3.94 | 0.856 | 2.37 | 0.629 | 2.55 | 2.28 | 18.3 | 1.86 | 7.12 | 2.1 | 6.42 | 1.7 | 4.9 | 1.69 | 3.22 | 1.66 | 3.49 | 1.83 | 3.35 |
| COC(=O)Nc1nc2ccccc2[nH]1 | – | > 100 | – | > 100 | – | > 100 | – | > 100 | – | > 100 | – | > 100 | – | 8.05 | – | 28.6 | – | > 100 | – | > 31.5 |
| O=C1/C(=C/c2ccc(F)cc2)CN(C(=O)CCN2CCC(=NO)CC2)C/C1=C\c1ccc(F)cc1 | 1.5 | 3.08 | 2.34 | 6.02 | 1.43 | 3.42 | 0.408 | > 49.7 | 1.17 | 3.69 | 1.37 | 3.54 | 0.827 | 2.72 | 1.14 | 3.02 | 2.02 | 5.46 | 5.22 | 11.5 |
| O=C(NNc1ccc(Cl)cc1)C1CCC(CNS(=O)(=O)c2ccccc2Cl)CC1 (stereo not given) | 1.48 | 13.8 | – | – | 42.5 | > 100 | 1.96 | 5.73 | 2.89 | 10.7 | 4.63 | 29 | 4.77 | 24.1 | 8.68 | 39.8 | 8.31 | > 100 | – | – |

— PubChem BioAssay (NCI)
